In patent US20230089247A1, “NOVEL COMPOUNDS SUITABLE FOR THE TREATMENT OF DYSLIPIDEMIA” (ZYDUS LIFESCIENCES LIMITED, priority 2019, published 2023):

How the values were obtained:
PCSK9 = PCSK9 (Homo sapiens, UniProt Q8NBP7); experiment: BODIPY-LDL uptake assay in HepG2 cells; format: cell-based; settings: 5 μg/ml PCSK9, BODIPY-LDL
Procedure, shortened: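 Compounds pre-incubated 60 min with 5 μg/ml PCSK9 (0.2% DMSO), then added to HepG2 cells for 16 h; 1 μg/ml BODIPY-LDL added in serum-free medium for 5 h. Fluorescence (Ex 485/Em 520 nm) normalized to protein; PCSK9-only wells = 0%, no-PCSK9 wells = 100% uptake, giving percent increase in LDL uptake.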

High Fat Diet C57 Mice = experiment: LDL-C lowering activity in high fat diet C57 mice; format: in vivo; settings: Mus musculus, po, 168 h; C57 mice on high fat diet; 30 mg/Kg orally once a day, 7 days treatment, blood on day 7; read-out: % Change Vs Vehicle Control in LDLc
Experimental: LDL-C Lowering Activity—in High Fat Diet C57 Mice
The in-vivo LDL-c lowering for test compound was tested in C57 mice which were kept on high fat diet for 4 weeks and the blood was collected by retro-orbital sinus puncture method under light ether anesthesia on day 0 (pretreatment). Animal are grouped based on LDL-c levels, after that 7 days treatment with vehicle or test compound orally at a dose of 30 mpk dose once a day was given. On completion of treatment on day 7 of the treatment the blood was collected for LDL-c and TC levels measurement.

Chain of PCSK9 (Q8NBP7 153-692): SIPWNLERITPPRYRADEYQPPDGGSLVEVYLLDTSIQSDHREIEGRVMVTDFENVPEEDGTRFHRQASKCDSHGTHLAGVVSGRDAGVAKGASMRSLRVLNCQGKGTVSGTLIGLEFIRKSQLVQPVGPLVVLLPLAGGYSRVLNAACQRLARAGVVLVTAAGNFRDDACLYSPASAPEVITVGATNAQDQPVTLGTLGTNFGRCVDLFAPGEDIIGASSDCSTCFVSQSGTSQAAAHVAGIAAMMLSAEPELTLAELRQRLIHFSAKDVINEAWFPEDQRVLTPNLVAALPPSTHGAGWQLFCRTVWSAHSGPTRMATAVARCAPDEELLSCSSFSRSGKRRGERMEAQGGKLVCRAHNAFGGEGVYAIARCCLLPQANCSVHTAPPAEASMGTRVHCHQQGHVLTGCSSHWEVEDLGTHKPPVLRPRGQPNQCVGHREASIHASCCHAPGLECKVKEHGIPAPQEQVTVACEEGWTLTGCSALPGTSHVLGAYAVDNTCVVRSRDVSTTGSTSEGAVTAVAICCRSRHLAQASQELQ

Row | SMILES | % increase in LDL Uptake (PCSK9; 1 μM test compound) [%] | % increase in LDL Uptake (PCSK9; 10 μM test compound) [%] | % increase in LDL Uptake (PCSK9; 30 μM test compound) [%] | change in vivo at 30 mg/kg (High Fat Diet C57 Mice) [%]
1 | [2H]C([2H])([2H])OC1(c2ccc(C(=O)N3CC4CN(c5ccc(C(F)(F)F)cc5)CC4C3)cc2)COC1 (stereo not drawn) [Example 134, (4-(3-(methoxy-d3)oxetan-3-yl)phenyl)(5-(4-(trifluoromethyl)phenyl)hexahydropyrrolo[3,4-c]pyrrol-2(1H)-yl)methanone] | 3 | 28 | 43 | -38 ± 7
2 | O=C(c1ccc(C2(O)CCOCC2)cc1)N1CCC(c2ccc(C(F)(F)F)cc2)CC1 [Example 142, (4-(4-hydroxytetrahydro-2H-pyran-4-yl)phenyl)(4-(4-(trifluoromethyl)phenyl)piperidin-1-yl)methanone] | 0 | 77 | 16 | -26 ± 10
3 | COC1(c2ccc(C(=O)N3CCC(c4ccc(C(F)(F)F)cc4)CC3)cc2)CCNCC1 [Example 144, (4-(4-methoxypiperidin-4-yl)phenyl)(4-(4-(trifluoromethyl)phenyl)piperidin-1-yl)methanone] | 1 | 16 | 77 | -66 ± 10
4 | O=C(Nc1cccc(C2(O)COC2)c1)N1CC2CN(c3ccc(C(F)(F)F)cc3)CC2C1 (stereo not drawn) [Example 182, N-(3-(3-hydroxyoxetan-3-yl)phenyl)-5-(4-(trifluoromethyl)phenyl) hexahydropyrrolo[3,4-c]pyrrole-2(1H)-carboxamide] | 42 | 37 | 60 | -5 ± 11
5 | O=C(c1ccc(C2(O)COC2)cc1)N1CCCN(c2ccc(C(F)(F)F)cc2)CC1 [Example 184, (4-(3-hydroxyoxetan-3-yl)phenyl)(4-(4-(trifluoromethyl)phenyl)-1,4-diazepan-1-yl)methanone] | 19 | 117 | 250 | -7 ± 7
6 | COC1(c2ccc(C(=O)N3CC4CN(c5ccc(C(F)(F)F)nc5)CC4C3)cc2)COC1 (stereo not drawn) [Example 206, (4-(3-methoxyoxetan-3-yl)phenyl)(5-(6-(trifluoromethyl)pyridin-3-yl)hexahydropyrrolo[3,4-c]pyrrol-2(1H)-yl)methanone] | 0 | 81 | 127 | -18.6 ± 5.7
7 | O=C(c1ccc(C2(O)COC2)cc1)N1CC2CN(c3ccc(C(F)(F)F)nc3)CC2C1 (stereo not drawn) [Example 215, (4-(3-hydroxyoxetan-3-yl)phenyl)(5-(6-(trifluoromethyl)pyridin-3-yl)hexahydropyrrolo[3,4-c]pyrrol-2(1H)-yl)methanone] | 0 | 90 | 140 | -29 ± 5
8 | O=C(c1ccc(C2(O)COC2)cc1)N1CCN(c2ccc(C(F)(F)F)cn2)CC1 [Example 216, (4-(3-hydroxyoxetan-3-yl)phenyl)(4-(5-(trifluoromethyl)pyridin-2-yl)piperazin-1-yl)methanone] | 0 | 64 | 189 | -40 ± 6
9 | O=C(c1cccc(C2(O)COC2)c1)N1CCN(c2ccc(C(F)(F)F)cn2)CC1 [Example 220, (3-(3-hydroxyoxetan-3-yl)phenyl)(4-(5-(trifluoromethyl)pyridin-2-yl)piperazin-1-yl)methanone] | 8 | 31 | 56 | -16
